Data: ChEMBL document CHEMBL4804285, “Small molecule inhibitors of cdk12/cdk13” (2019)
pIC50, pKd: −log10 of the molar value. Several values for one entry are separate records, joined by “and”; a condition that tells them apart may be missing. Equal values may be shown once.

Legend:
[1] = molecular target: Casein kinase I isoform delta (Homo sapiens, UniProt P48730); experiment: Inhibition of casein kinase 1delta (unknown origin)
[2] = molecular target: Cyclin-dependent kinase 12 (Homo sapiens, UniProt Q9NYV4); experiment: Binding affinity towards CDK12 (unknown origin) by Discover X assay
[3] = molecular target: T1, Cyclin-dependent kinase 13 (Homo sapiens, UniProt Q14004); experiment: Binding affinity towards CDK13 (unknown origin) by Discover X assay
Target sequence in this assay (Q14004 whole entry, canonical isoform): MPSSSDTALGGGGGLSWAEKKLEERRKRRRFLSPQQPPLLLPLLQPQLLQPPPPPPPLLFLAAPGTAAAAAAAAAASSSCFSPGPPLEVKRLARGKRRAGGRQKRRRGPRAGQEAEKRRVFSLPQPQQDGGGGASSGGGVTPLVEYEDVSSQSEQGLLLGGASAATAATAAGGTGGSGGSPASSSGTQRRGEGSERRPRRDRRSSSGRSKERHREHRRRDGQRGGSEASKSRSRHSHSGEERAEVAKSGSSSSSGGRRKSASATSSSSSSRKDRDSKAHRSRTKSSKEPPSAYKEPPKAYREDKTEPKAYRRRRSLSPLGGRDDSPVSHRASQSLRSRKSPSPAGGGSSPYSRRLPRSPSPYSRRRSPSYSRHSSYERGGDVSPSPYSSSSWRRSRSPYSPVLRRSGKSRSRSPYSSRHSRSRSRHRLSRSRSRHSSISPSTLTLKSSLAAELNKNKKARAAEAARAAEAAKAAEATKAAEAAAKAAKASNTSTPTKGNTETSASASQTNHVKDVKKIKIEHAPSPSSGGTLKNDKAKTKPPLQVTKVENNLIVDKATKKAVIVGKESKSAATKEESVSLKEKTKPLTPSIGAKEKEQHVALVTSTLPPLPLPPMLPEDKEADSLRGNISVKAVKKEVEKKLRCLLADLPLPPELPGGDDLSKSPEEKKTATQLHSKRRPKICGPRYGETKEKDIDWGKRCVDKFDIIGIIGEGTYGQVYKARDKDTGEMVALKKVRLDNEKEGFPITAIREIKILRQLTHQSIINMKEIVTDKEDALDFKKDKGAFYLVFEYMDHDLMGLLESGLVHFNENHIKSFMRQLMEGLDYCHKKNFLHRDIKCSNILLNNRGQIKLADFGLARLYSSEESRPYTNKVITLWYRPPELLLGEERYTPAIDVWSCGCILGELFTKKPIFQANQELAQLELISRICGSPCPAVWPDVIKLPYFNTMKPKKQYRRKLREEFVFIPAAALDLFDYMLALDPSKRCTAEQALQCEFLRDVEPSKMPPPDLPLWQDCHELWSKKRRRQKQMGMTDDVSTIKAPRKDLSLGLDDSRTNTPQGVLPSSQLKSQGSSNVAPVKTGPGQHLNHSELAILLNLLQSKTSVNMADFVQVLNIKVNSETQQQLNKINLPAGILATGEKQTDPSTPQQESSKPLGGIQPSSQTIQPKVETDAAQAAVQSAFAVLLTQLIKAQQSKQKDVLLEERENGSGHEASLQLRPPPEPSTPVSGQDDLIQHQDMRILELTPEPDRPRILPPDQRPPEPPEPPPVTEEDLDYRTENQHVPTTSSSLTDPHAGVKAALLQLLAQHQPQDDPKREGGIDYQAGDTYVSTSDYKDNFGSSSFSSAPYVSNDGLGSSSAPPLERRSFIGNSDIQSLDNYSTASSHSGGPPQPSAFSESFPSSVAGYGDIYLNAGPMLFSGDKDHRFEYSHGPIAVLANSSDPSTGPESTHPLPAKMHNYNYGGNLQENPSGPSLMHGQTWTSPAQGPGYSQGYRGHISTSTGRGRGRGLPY

[4] = molecular target: Casein kinase I isoform epsilon (Homo sapiens, UniProt P49674); experiment: Inhibition of casein kinase 1epsilon (unknown origin)
Cytochrome P450 1A2 = molecular target: T2, Cytochrome P450 1A2 (Homo sapiens, UniProt P05177); experiment: Inhibition of CYP1A2 (unknown origin); type: ADME
T2 sequence (P05177 whole entry): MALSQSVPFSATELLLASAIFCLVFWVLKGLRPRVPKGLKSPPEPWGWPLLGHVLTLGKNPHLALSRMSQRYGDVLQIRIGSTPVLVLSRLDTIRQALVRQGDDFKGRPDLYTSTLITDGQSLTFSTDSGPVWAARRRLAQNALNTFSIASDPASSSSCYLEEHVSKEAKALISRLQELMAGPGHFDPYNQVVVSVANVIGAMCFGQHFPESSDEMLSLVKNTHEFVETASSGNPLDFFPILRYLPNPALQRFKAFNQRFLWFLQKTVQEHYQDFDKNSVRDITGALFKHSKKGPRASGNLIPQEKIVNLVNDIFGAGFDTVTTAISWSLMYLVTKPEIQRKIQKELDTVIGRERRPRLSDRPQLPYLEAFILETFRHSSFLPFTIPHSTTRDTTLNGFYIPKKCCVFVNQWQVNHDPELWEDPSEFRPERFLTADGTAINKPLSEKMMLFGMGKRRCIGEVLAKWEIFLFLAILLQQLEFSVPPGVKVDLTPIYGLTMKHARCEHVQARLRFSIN

Cytochrome P450 2D6 = Cytochrome P450 2D6 (Homo sapiens, UniProt P10635); experiment: Inhibition of CYP2D6 (unknown origin); type: ADME
Cytochrome P450 3A4 = Cytochrome P450 3A4 (Homo sapiens, UniProt P08684); experiment: Inhibition of CYP3A4 (unknown origin); type: ADME
Sequence of Cytochrome P450 3A4 (P08684 whole entry): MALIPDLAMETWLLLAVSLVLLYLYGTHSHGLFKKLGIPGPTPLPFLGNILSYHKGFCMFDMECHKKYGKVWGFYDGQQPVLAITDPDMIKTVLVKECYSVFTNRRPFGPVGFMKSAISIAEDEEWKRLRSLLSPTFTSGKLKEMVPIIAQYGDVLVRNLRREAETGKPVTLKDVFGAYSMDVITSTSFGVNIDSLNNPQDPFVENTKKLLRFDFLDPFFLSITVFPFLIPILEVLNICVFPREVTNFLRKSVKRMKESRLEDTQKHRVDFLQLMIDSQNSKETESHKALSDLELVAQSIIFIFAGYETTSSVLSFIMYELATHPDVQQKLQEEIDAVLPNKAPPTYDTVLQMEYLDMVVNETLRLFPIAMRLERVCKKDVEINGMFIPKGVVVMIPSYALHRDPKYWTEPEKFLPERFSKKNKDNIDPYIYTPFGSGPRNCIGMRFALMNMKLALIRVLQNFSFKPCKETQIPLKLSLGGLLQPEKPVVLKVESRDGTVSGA

Cytochrome P450 2C9 = Cytochrome P450 2C9 (Homo sapiens, UniProt P11712); experiment: Inhibition of CYP2C9 (unknown origin); type: ADME
[5] = molecular target: Cyclin-dependent kinase 19 (Homo sapiens) (UniProt Q9BWU1); experiment: Inhibition of CDK11 (unknown origin) at 10 uM relative to control
[6] = molecular target: T1, Cyclin-dependent kinase 13; experiment: Inhibition of CDK13 (unknown origin) at 10 uM relative to control
Target sequence in this assay (Q14004 whole entry, looked up, canonical isoform): as the sequence (Q14004 whole entry, canonical isoform) above

[7] = molecular target: Cyclin-dependent kinase-like 3 (Homo sapiens) (UniProt Q8IVW4); experiment: Inhibition of CDKL3 (unknown origin) at 10 uM relative to control
Sequence of Cyclin-dependent kinase-like 3 (Homo sapiens) (Q8IVW4 whole entry, looked up): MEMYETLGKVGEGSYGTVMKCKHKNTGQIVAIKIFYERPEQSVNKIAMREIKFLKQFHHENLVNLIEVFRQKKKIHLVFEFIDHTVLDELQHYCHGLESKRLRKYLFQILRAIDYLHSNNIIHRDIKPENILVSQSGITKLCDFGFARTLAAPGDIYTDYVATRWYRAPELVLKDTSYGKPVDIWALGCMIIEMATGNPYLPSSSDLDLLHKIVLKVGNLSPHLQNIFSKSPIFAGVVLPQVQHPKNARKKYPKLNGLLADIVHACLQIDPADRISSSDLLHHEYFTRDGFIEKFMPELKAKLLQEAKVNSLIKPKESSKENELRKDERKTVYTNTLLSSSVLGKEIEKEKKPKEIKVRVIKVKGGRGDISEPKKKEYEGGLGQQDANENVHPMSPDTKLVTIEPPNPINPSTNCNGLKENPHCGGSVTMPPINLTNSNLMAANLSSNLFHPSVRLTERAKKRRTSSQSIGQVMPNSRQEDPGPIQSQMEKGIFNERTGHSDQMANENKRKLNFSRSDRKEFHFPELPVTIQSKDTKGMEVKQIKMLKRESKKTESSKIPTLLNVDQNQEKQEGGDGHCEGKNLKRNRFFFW

[8] = molecular target: Cyclin-dependent kinase 7 (Homo sapiens) (UniProt P50613); experiment: Inhibition of CDK7 (unknown origin) at 10 uM relative to control
Sequence of Cyclin-dependent kinase 7 (Homo sapiens) (P50613 whole entry): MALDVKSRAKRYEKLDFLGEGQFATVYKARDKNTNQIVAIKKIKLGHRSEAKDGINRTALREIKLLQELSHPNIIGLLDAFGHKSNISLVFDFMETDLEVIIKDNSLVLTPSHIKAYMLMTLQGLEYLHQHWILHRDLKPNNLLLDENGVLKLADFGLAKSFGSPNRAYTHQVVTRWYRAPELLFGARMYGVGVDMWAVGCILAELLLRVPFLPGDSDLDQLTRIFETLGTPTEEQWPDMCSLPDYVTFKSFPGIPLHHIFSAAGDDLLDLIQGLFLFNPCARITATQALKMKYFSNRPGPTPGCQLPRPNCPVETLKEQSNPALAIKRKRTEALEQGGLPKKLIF

[9] = molecular target: Cyclin-dependent kinase 3 (Homo sapiens) (UniProt Q00526); experiment: Inhibition of CDK3 (unknown origin) at 10 uM relative to control
Sequence of Cyclin-dependent kinase 3 (Homo sapiens) (Q00526 whole entry, looked up): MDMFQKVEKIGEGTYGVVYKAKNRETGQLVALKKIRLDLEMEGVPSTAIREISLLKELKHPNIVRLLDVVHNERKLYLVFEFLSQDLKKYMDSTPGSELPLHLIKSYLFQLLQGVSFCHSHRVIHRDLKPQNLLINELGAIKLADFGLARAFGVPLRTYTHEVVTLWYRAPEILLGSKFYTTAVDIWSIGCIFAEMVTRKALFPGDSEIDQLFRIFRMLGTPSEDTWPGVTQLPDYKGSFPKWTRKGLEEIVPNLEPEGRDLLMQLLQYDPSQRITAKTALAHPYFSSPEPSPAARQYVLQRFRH

[10] = molecular target: Cyclin-dependent kinase 8 (Homo sapiens) (UniProt P49336); experiment: Inhibition of CDK8 (unknown origin) at 10 uM relative to control
Sequence of Cyclin-dependent kinase 8 (Homo sapiens) (P49336 whole entry): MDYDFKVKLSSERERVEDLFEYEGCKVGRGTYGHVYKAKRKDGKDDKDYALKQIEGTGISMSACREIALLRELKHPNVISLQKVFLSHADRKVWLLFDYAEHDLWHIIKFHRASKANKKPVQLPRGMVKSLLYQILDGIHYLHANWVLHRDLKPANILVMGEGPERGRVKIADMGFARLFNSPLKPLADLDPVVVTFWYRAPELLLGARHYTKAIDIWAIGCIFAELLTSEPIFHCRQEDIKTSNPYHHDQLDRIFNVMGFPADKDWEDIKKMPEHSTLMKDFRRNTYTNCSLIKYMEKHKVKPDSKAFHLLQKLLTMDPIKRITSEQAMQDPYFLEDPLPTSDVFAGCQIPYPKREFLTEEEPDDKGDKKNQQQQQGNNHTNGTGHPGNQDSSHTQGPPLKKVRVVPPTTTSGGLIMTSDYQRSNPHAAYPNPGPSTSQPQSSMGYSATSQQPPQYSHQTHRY

[11] = molecular target: CDK4/Cyclin D3 (Homo sapiens) (UniProt P11802+P30281); experiment: Inhibition of CDK4/Cyclin D3 (unknown origin) at 10 uM relative to control; type: protein-complex assay
[12] = molecular target: Cyclin-dependent kinase 2 (Homo sapiens) (UniProt P24941); experiment: Inhibition of CDK2 (unknown origin) at 10 uM relative to control
[13] = molecular target: Cyclin-dependent kinase 9 (Homo sapiens) (UniProt P50750); experiment: Inhibition of CDK9 (unknown origin) at 10 uM relative to control
Sequence of Cyclin-dependent kinase 9 (Homo sapiens) (P50750 whole entry): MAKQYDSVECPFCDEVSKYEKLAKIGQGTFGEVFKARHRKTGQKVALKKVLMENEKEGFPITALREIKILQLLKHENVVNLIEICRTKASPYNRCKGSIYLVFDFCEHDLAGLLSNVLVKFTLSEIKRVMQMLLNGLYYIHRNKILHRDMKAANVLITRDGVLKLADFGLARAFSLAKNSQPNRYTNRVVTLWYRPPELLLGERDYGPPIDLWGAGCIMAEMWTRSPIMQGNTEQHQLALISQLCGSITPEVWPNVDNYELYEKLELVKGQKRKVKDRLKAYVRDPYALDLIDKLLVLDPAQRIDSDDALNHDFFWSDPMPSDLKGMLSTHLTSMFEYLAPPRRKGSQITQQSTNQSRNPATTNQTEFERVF

[14] = molecular target: Cyclin-dependent kinase-like 1 (Homo sapiens) (UniProt Q00532); experiment: Inhibition of CDKL1 (unknown origin) at 10 uM relative to control
Sequence of Cyclin-dependent kinase-like 1 (Homo sapiens) (Q00532 whole entry): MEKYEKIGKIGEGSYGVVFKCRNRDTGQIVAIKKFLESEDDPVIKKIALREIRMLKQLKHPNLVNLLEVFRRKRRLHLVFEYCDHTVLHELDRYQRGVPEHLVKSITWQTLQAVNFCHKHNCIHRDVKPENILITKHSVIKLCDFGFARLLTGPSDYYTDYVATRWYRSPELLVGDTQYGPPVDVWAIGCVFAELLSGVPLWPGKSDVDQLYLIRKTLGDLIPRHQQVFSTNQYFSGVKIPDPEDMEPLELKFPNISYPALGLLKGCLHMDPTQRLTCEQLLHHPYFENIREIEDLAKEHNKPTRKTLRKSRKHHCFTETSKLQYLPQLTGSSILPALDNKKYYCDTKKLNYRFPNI

[15] = molecular target: Cyclin-dependent kinase 4/cyclin D1 (Homo sapiens) (UniProt P11802+P24385); experiment: Inhibition of CDK4/Cyclin D1 (unknown origin) at 10 uM relative to control; type: protein-complex assay
[16] = molecular target: T3, Cyclin-dependent kinase-like 5 (Homo sapiens) (UniProt O76039); experiment: Inhibition of CDKL5 (unknown origin) at 10 uM relative to control
T3 sequence (whole entry): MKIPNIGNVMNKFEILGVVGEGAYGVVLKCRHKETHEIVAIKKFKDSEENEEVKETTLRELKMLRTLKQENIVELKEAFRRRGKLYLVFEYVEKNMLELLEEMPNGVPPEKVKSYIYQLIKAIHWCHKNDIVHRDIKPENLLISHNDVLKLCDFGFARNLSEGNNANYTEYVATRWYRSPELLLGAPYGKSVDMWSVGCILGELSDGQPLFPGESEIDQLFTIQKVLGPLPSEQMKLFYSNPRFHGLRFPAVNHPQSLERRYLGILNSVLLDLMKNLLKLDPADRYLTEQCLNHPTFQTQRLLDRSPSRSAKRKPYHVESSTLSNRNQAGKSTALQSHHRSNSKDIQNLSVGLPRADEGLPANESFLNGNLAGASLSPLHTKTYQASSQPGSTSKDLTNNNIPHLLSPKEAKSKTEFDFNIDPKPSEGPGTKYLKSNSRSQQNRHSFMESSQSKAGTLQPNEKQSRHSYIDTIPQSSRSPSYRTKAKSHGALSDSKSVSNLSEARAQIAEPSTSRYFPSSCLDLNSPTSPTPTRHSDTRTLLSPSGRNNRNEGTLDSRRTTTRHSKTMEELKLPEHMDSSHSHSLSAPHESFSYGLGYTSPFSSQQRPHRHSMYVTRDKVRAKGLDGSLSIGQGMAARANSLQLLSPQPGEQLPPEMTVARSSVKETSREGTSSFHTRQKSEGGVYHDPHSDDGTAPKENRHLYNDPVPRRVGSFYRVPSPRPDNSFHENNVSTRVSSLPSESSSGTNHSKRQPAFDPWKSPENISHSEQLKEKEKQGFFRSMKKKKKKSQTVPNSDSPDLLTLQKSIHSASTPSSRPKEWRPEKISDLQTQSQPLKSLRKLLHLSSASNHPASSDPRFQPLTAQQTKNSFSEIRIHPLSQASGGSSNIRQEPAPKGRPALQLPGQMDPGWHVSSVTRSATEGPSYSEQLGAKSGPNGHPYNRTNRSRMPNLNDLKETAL

[17] = molecular target: T4, Cyclin-dependent kinase-like 2 (Homo sapiens) (UniProt Q92772); experiment: Inhibition of CDKL2 (unknown origin) at 10 uM relative to control
T4 sequence (whole entry): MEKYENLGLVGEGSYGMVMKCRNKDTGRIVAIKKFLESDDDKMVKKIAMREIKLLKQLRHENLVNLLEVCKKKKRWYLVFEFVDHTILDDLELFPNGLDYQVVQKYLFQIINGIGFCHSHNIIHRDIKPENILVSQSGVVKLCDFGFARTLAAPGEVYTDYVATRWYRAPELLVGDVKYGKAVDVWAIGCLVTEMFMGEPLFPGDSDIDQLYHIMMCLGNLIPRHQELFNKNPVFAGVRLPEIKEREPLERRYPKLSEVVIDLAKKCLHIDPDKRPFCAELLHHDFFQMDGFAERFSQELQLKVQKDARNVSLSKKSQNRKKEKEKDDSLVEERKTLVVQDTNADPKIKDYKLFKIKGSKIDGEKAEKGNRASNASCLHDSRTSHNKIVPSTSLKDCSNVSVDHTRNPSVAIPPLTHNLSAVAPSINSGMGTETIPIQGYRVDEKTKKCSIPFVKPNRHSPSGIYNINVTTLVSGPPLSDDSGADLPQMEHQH

[18] = molecular target: Cyclin-dependent kinase 4 (Homo sapiens) (UniProt P11802); experiment: Inhibition of CDK4 (unknown origin) at 10 uM relative to control
[19] = molecular target: Cyclin-dependent kinase 5 (Homo sapiens) (UniProt Q00535); experiment: Inhibition of CDK5 (unknown origin) at 10 uM relative to control
[20] = Cmax in mouse at 20 mg/kg, ip; type: ADME, organism-based; design: route intraperitoneal, dose 20 mg/kg; settings: in vivo
[21] = AUC (last) in mouse at 20 mg/kg, ip; type: ADME, organism-based; design: time 0 - last, route intraperitoneal, dose 20 mg/kg; settings: in vivo

Sequence of Casein kinase I isoform delta (P48730 whole entry, canonical isoform): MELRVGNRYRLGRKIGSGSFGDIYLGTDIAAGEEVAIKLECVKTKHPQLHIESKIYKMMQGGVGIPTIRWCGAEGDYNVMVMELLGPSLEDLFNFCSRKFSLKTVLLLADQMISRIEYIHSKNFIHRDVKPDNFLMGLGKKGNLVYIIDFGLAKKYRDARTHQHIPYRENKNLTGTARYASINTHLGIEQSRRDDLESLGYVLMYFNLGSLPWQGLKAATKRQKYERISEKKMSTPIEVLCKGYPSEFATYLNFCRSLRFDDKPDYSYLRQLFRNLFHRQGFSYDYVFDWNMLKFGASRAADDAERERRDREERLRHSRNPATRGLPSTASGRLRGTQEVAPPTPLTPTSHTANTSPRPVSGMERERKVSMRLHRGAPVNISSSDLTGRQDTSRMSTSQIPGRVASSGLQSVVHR

| Structure (SMILES) | pIC50 [1] | pKd [2] | pKd [3] | pIC50 [4] | inhibition (INH) (Cytochrome P450 1A2) | inhibition (INH) (Cytochrome P450 2D6) | inhibition (INH) (Cytochrome P450 3A4) | inhibition (INH) (Cytochrome P450 2C9) | inhibition [5] | inhibition [6] | inhibition [7] | inhibition [8] | inhibition [9] | inhibition [10] | inhibition [11] | inhibition [12] | inhibition [13] | inhibition [14] | inhibition [15] | inhibition [16] | other results |
| --- | --- | --- | --- | --- | --- | --- | --- | --- | --- | --- | --- | --- | --- | --- | --- | --- | --- | --- | --- | --- | --- |
| FC(F)n1cc(-n2cnc3c(NCc4nc5cc(Cl)c(Cl)cc5[nH]4)nc(N4CCOCC4)nc32)cn1 | 5.90 | 6.51 | 8.05 | 6.15 | – | – | – | – | – | – | – | – | – | – | – | – | – | – | – | – | – |
| Fc1ccc2[nH]c(CNc3nc(N4CCOCC4)nc4c3ncn4-c3cscn3)nc2c1F | 6.06 | 7.74 | 8.22 | 5.89 | 97% | 57% | 89% | – | – | – | – | – | – | – | – | – | – | – | – | – | – |
| Fc1cccc(-n2cnc3c(NCc4nc5c(F)c(F)ccc5[nH]4)nc(N4CCOCC4)nc32)c1 | – | – | – | – | – | – | – | – | 0% | 100% | 5% | 72% | 6% | 22% | 95% | 1% | 69% | 8% | 97% | 0% | inhibition [19]: 18%; inhibition [17]: 0% |
| Cc1cc(-n2cnc3c(NCc4nc5c(F)c(F)ccc5[nH]4)nc(N4CCOCC4)nc32)no1 | – | – | – | – | 5% | 2% | 55% | 23% | 23% | 100% | 0% | 69% | 8% | 40% | 99% | 3% | 64% | 16% | 99% | 1% | inhibition [17]: 2% |
| Cn1cc(-n2cnc3c(NCc4nc5cc(Cl)c(Cl)cc5[nH]4)nc(N4CCOC[C@@H]4CO)nc32)cn1 | 6.48 | – | – | 6.84 | 42% | 42% | 77% | 69% | – | – | – | – | – | – | – | – | – | – | – | – | – |
| Cn1cc(-n2cnc3c(NCc4nc5cc(Cl)c(Cl)cc5[nH]4)nc(N4CCOC[C@H]4CO)nc32)cn1 | 5.22 | – | – | 5.27 | 39% | 29% | 54% | 54% | – | – | – | – | – | – | – | – | – | – | – | – | Cmax [20]: 1430 ng/mL and 2.7 µM; AUC(0-t) [21]: 10 µM·h |

Further lines, with some results ahead:

| pIC50 [1] | pKd [2] | pKd [3] | pIC50 [4] | inhibition (INH) (Cytochrome P450 1A2) | inhibition (INH) (Cytochrome P450 2D6) | inhibition (INH) (Cytochrome P450 3A4) | inhibition (INH) (Cytochrome P450 2C9) | inhibition [5] | inhibition [6] | inhibition [7] | inhibition [8] | inhibition [9] | inhibition [10] | inhibition [11] | inhibition [12] | inhibition [13] | inhibition [14] | inhibition [15] | inhibition [16] | Structure (SMILES) | other results |
| --- | --- | --- | --- | --- | --- | --- | --- | --- | --- | --- | --- | --- | --- | --- | --- | --- | --- | --- | --- | --- | --- |
| – | – | – | – | 5% | 2% | 55% | 23% | – | – | – | – | – | – | – | – | – | – | – | – | Cn1cc(-n2cnc3c(NCc4nc5cc(F)c(F)cc5[nH]4)nc(N4CCOCC4)nc32)cn1 | – |
| – | – | – | – | 10% | -3% | 56% | 23% | 0% | 100% | 0% | 69% | 3% | 0% | 99% | 6% | 43% | 16% | 99% | 0% | Cn1cc(-n2cnc3c(NCc4nc5c(F)c(F)ccc5[nH]4)nc(N4CCOCC4)nc32)cn1 | inhibition [17]: 0% |
| – | 7.42 | 8.70 | 5.58 | – | – | – | – | – | 12% | – | 98% | – | – | – | – | – | – | – | – | COc1cc2nc(CNc3nc(N4CCOCC4)nc4c3ncn4-c3cnn(C)c3)[nH]c2cc1Cl | inhibition [18]: 99% |
